The numbers were not newly measured in patent US7364877B2, “Polynucleotides encoding disorazole polyketide synthase polypeptides” (Kosan Biosciences, Inc., priority 2002, dated 2008), which cites them from elsewhere.

SMILES strings stand for the structures.

Data set [1] relates to bacteria.
The test system of data set [2] is mammalian cell. Conditions: mammalian cells.
For data set [3], the system named is filamentous fungi belonging to the Ascomycetes, Basidiomycetes, Zygomycetes, Oomycetes, and Deuteromycetes families. The note with it: including filamentous fungi.
The test system of data set [4] is yeast.

`C/C=C/[C@H](O)C(C)(C)[C@@H]1C\C=C/C=C\C=C\[C@H](OC)Cc2nc(co2)C(=O)O[C@H](C(C)(C)[C@@H](O)/C=C/C)C/C=C\[C@H]2O[C@H]2/C=C/C=C\c2nc(co2)C(=O)O1` [Disorazole A, disorazole A]: the activity against bacteria result in data set [1] is “not highly active”. Moreover, in data set [2], the “mammalian cell cytotoxic activity (MIC)” value was 0.003 to 0.03 ng/mL. Further, the “activity against different fungi (MIC)” value in data set [3] is 100 to 1000 ng/mL. The activity against yeast entry in data set [4] is “not highly active”.
